Measurements taken from patent US11077159B2, “Compositions from halophyte plants and methods of use thereof” (KHALIFA UNIVERSITY OF SCIENCE AND TECHNOLOGY, priority 2017, dated 2021).
“And” between values parts separate entries of the source, which are not always exact repeats. Identical values can stand only once.

How the values were obtained:
[1] = tested on: matrix metalloproteinase-1 (MMP-1) release; assay: MMP-1 release by aged fibroblasts (ELISA), anti-aging; format: cell-based, human; conditions: 10^−7M
Excerpt: […] The matrix metalloproteinase-1 (MMP-1) assay using a specific ELISA kit was used to evaluate anti-aging properties. The migration/proliferation of NHEK using kinetic image analysis of the wound recovery was used to evaluate cell renewal properties. The IL-8 release on NHEK stimulated by PMA using a specific ELISA kit was used to evaluate anti-inflammatory properties.

[2] = DPPH free radical scavenging (antioxidant) assay; format: biochemical; conditions: positive control, 0.3 mg/mL; ± standard error
Description: Two controls were used in the DPPH assay; a negative control containing all reagents except for the test extract, and a positive control using a final concentration of 0.33 mg/mL L-ascorbic acid as antioxidant instead of test extract. Radical scavenging activity was calculated as follows: Scavenging activity (%)=[(Acontrol−Atest)/[…]]*100 Where Acontrol is the negative control (without test extract), and Atest is the absorbance with the botanical extract. All analysis were carried out in triplicate.

IL-8 release of NHEK = IL-8 release of NHEK stimulated by PMA (ELISA), anti-inflammatory; format: cell-based, human; conditions: 10^−9M
Excerpt: The matrix metalloproteinase-1 (MMP-1) assay using a specific ELISA kit was used to evaluate anti-aging properties. The migration/proliferation of NHEK using kinetic image analysis of the wound recovery was used to evaluate cell renewal properties. The IL-8 release on NHEK stimulated by PMA using a specific ELISA kit was used to evaluate anti-inflammatory properties.

[3] = Scavenging of reactive oxygen species; conditions: control reference, concentration not given
Hyaluronic acid = Hyaluronic acid synthesis; format: cell-based; conditions: 10^−7M

C[C@@H]1C[C@H]2[C@@H]3CCC4=CC(=O)C=C[C@]4(C)[C@@]3(F)[C@@H](O)C[C@]2(C)[C@@]1(O)C(=O)CO [Dexamethasone]
MMP-1 % Control (P17-F) [1]: 58%
inhibition at 0.1 µM ([1]; Homo sapiens, Fibroblast): 42%
MMP-1 (ng/ml) dilution factor adjusted ([1]; P17-F aged fibroblasts, single replicate): 8.7 ng/mL and 8.2 ng/mL and 8.5 ng/mL
MMP-1 Mean ([1]; P17-F): 8.5 ng/mL

O=C1O[C@H]([C@@H](O)CO)C(O)=C1O [L-ascorbic acid]
DPPH scavenging activity [2]: 95.79±0.17%

CN[C@@H]1C[C@H]2O[C@@](C)([C@@H]1OC)n1c3ccccc3c3c4c(c5c6ccccc6n2c5c31)C(=O)NC4 [Staurosporine]
IL-8 % Stimulated control (IL-8 release of NHEK): 54%
IL-8 Mean (IL-8 release of NHEK; PMA 0.1 μg/ml): 1685 pg/mL
IL-8 (pg/ml) dilution factor adjusted (IL-8 release of NHEK; PMA 0.1 μg/ml, non-diluted sample, single replicate): 1579 pg/mL and 1809 pg/mL and 1668 pg/mL

Vitamin-E
ROS scavenged [3]: 92%

CC1=C(/C=C/C(C)=C/C=C/C(C)=C/C(=O)O)C(C)(C)CCC1 [Retinoic acid]
Hyaluronic acid % Control (Hyaluronic acid): 241%
Hyaluronic acid % Stimulation (Hyaluronic acid): 141%
Hyaluronic acid Mean (Hyaluronic acid): 655.7 ng/mL
Hyaluronic acid (ng/ml) dilution factor adjusted (Hyaluronic acid; single replicate): 677.2 ng/mL and 632.1 ng/mL and 657.9 ng/mL
